Tested on: Moloney murine leukemia virus (MoLV)
Assay: in vitro XC plaque assay (inhibition of growth and replication of murine leukemia virus in mouse SC-1 cells)
Format: cell-based
Settings: compound added 2 hours prior to virus; for Average No. of Foci/plate: Control 36 foci/plate
Experimental: This assay was performed according to the method of Rowe et al. (Virology, 1970, 42, 1136-39) as previously described by L. Hsu, et al. (J. Virological Methods, 1980, 1, 167-77) and T. L. Bowlin and M. R. Proffitt (J. Interferon Res., 1983, 3(1), 19-31). Mouse SC-1 cells (fibroblast) (10⁵) were seeded into each well of 6-well cluster plates (Costar #3506) in 4 ml Minimum Essential Medium (MEM) with 10% Fetal Calf Serum (FCS). Following an 18 hour incubation period (37°C), Moloney murine leukemia virus (MoLV) was applied at a predetermined titer to give optimal (i.e. countable) numbers of virus plaques. Compounds were added 2 hours prior to addition of the virus. Three days later the culture medium was removed, the SC-1 cell monolayers were exposed to UV irradiation (1800 ergs), and rat XC cells […] were seeded into each well in 4 ml MEM. Following an additional 3 day incubation (37°C), these cells were fixed with ethyl alcohol (95%) and stained with 0.3% crystal violet. Plaques were then counted under low magnification.

Row | Compound | Average No. of Foci/plate (Concentration 0.0025 µg/ml) | Average No. of Foci/plate (Concentration 0.005 µg/ml) | Average No. of Foci/plate (Concentration 0.01 µg/ml) | Average No. of Foci/plate (Concentration 0.1 µg/ml) | inhibition at 0.0025 µg/mL (Murine leukemia virus, SC1, Concentration 0.0025 µg/ml) [%] | inhibition at 0.005 µg/mL (Murine leukemia virus, SC1, Concentration 0.005 µg/ml) [%] | inhibition at 0.01 µg/mL (Murine leukemia virus, SC1, Concentration 0.01 µg/ml) [%] | inhibition at 0.1 µg/mL (Murine leukemia virus, SC1, Concentration 0.1 µg/ml) [%] | Average No. of Foci/plate (Concentration 0.001 µg/ml) | inhibition at 0.001 µg/mL (Murine leukemia virus, SC1, Concentration 0.001 µg/ml) [%]
1 | Nc1ccn([C@@H]2O[C@H](CO)[C@@H](O)C2(F)F)c(=O)n1 [2′-Deoxy-2′,2′-Difluorocytidine, 2′-deoxy-2′,2′-difluorocytidine] | 28 | 15 | 0 | 0 | 22 | 58 | 100 | 100 |  | 
2 | Cc1cn([C@H]2C[C@H](N=[N+]=[N-])[C@@H](CO)O2)c(=O)[nH]c1=O [AZT, 3′-azido-3′-deoxythymidine, reference compound] |  |  |  |  |  |  |  |  | 18 | 50

Reference: EP0345751A1, “Anti-retroviral diflourinated nucleosides” (MERRELL DOW PHARMACEUTICALS INC., priority 1988, dated 1989)
